Source: patent publication US10266535B2, “Inhibitor of FLT3 kinase and use thereof” (HEFEI INSTITUTES OF PHYSICAL SCIENCE, CHINESE ACADEMY OF …, priority 2015, dated 2019)
Structures can show the parent of a compound that is named as a salt. Where two headings read alike, the source gives them in different places.

Columns and labels:
[1] = test system: TEL-BaF3-FLT3/ITD (stably expressing FLT3/ITD mutant activated kinase); experiment: Cell proliferation, Cell Titer-Glo, TEL-BaF3-FLT3/ITD; format: cell-based, mouse
Description: (§1) The above cell lines were constructed by our laboratory.
(§2) The number of viable cells was determined by quantification of ATP in living cells using the Cell Titer-Glo® (Promega, USA) chemiluminescence cell viability assay kit.

[2] = test system: MV4-11 (expressing FLT3/ITD mutant gene); experiment: Cell proliferation, Cell Titer-Glo, MV4-11; format: cell-based; settings: Homo sapiens
Description: as §1, §2

[3] = test system: pro-B cell BaF3; experiment: Cell proliferation, Cell Titer-Glo, BaF3; format: cell-based; settings: Mus musculus, incubated for 72 hours
Description: as §1, §2

[4] = test system: OCI-AML-3 (expressing FLT3 A680V mutant gene); experiment: Cell proliferation, Cell Titer-Glo, OCI-AML3; format: cell-based; settings: Homo sapiens, incubated for 72 hours
Description: as §1, §2

[5] = test system: U937 (expressing wild-type FLT3 gene); experiment: Cell proliferation, Cell Titer-Glo, U937; format: cell-based, human; settings: Homo sapiens, U-937, 72 h, incubated for 72 hours; read-out: U937 IC50
Description: as §1, §2

[6] = test system: MOLM-13 (expressing FLT3/ITD mutant gene and wild-type FLT3 gene); experiment: Cell proliferation, Cell Titer-Glo, MOLM-13; format: cell-based; settings: Homo sapiens, MOLM-13; incubated for 72 hours; read-out: MOLM-13 IC50
Description: as §1, §2

[7] = test system: TEL-cKIT-BaF3 (stably expressing cKIT kinase); experiment: Cell proliferation, Cell Titer-Glo, TEL-cKIT-BaF3; format: cell-based; settings: Mus musculus; incubated for 72 hours
Description: as §1, §2

[8] = test system: TEL-BaF3-BLK (stably expressing BLK kinase); experiment: Cell proliferation, Cell Titer-Glo, TEL-BaF3-BLK; format: cell-based; settings: Mus musculus; incubated for 72 hours
Description: as §1, §2

[9] = test system: TEL-BaF3-BMX (stably expressing BMX kinase); experiment: Cell proliferation, Cell Titer-Glo, TEL-BaF3-BMX; format: cell-based; settings: Mus musculus; incubated for 72 hours
Description: as §1, §2

[10] = Mus musculus, 72 h, incubated for 72 hours, read-out: TEL-BaF3-FLT3/ITD IC50
[11] = MV4-11, incubated for 72 hours, read-out: MV4-11 IC50

Row | Compound | IC50 [3] | IC50 [1, 10] | IC50 [2, 11] | IC50 [5] | other results
1 | CC(C)C[C@@H](N)C(=O)N[C@H]1CC[C@H](n2nc(-c3ccc(Oc4ccccc4)cc3)c3c(N)ncnc32)CC1 (stereo in doubt) [Compound 85, (R)-2-amino-N-(4-(4-amino-3-(4-phenoxyphenyl)-1H-pyrazolo[3,4-d]pyrimidin-1-yl)trans-1,4-cyclohexyl)-4-methylpentanamide hydrochloride] | 950 nM |  |  |  | IC50 ([1]; Mus musculus, 72 h, read-out: TEL-BaF3-FLT3/ITD IC50 [μM], incubated for 72 hours): 0.082 µM; IC50 ([2]; MV4-11, 72 h, read-out: MV4-11 IC50 [μM]): 0.51 µM
2 | Nc1ncnc2c1c(-c1ccc(Oc3ccccc3)cc1)nn2[C@@H]1CCCN(S(=O)(=O)C(F)(F)F)C1 [Compound 3, (R)-3-(4-phenoxyphenyl)-1-(1-((trifluoromethyl)sulfonyl)piperidin-3-yl)-1H-pyrazolo[3,4-d]pyrimidin-4-amine] |  | 1.8 µM |  | > 10000 nM | 
3 | COC(=O)c1ccc(C(=O)N2CCC[C@@H](n3nc(-c4ccc(Oc5ccccc5)cc4)c4c(N)ncnc43)C2)cc1 [Compound 16, (R)-methyl 4-(3-(4-amino-(4-phenoxyphenyl)-1H-pyrazolo[3,4-d]pyrimidin-1-yl)piperidine-1-carbonyl)benzoate] |  | 6 µM |  | > 10000 nM | 
4 | Nc1ccc(C(=O)N2CCC[C@@H](n3nc(-c4ccc(Oc5ccccc5)cc4)c4c(N)ncnc43)C2)cn1 [Compound 17, (R)-(3-(4-amino-(4-phenoxyphenyl)-1H-pyrazolo[3,4-d]pyrimidin-1-yl)piperidin-1-yl)(6-aminopyridin-3-yl)methanone] |  | 0.88 µM |  | > 10000 nM | 
5 | Nc1ncnc2c1c(-c1ccc(Oc3ccccc3)cc1)nn2[C@@H]1CCCN(C(=O)c2ccc3c(c2)OCO3)C1 [Compound 18, (R)-(3-(4-amino-(4-phenoxyphenyl)-1H-pyrazolo[3,4-d]pyrimidin-1-yl)piperidin-1-yl)-(3,4-methylenedioxyphenyl)mathanone] |  | 1.8 µM |  | > 10000 nM | 
6 | Nc1ncc(C(=O)N2CCC[C@@H](n3nc(-c4ccc(Oc5ccccc5)cc4)c4c(N)ncnc43)C2)cn1 [Compound 21, (R)-(3-(4-amino-(4-phenoxyphenyl)-1H-pyrazolo[3,4-d]pyrimidin-1-yl)piperidin-1-yl)(2-aminopyrimidin-5-yl)methanone] |  | 0.33 µM |  | > 10000 nM | 
7 | C[C@@H](N)C(=O)N1CCC[C@@H](n2nc(-c3ccc(Oc4ccccc4)cc3)c3c(N)ncnc32)C1 [Compound 24, (R)-2-amino-1-((R)-3-(4-amino-(4-phenoxyphenyl)-1H-pyrazolo[3,4-d]pyrimidin-1-yl)piperidin-1-yl)propan-1-one] |  |  |  | 7800 nM | IC50 ([1]; incubated for 72 hours, read-out: TEL-BaF3-FLT3/ITD IC50): 0.67 µM
8 | CN1CCN(Cc2ccc(C(=O)N3CCC[C@@H](n4nc(-c5ccc(Oc6ccccc6)cc5)c5c(N)ncnc54)C3)cc2)CC1 [Compound 35, (R)-(3-(4-amino-(4-phenoxyphenyl)-1H-pyrazolo[3,4-d]pyrimidin-1-yl)piperidin-1-yl)(4-((4-methylpiperazin-1-yl)methyl)phenyl)methanone] |  | 0.07 µM | 0.28 µM | 1060 nM | IC50 [4]: 620 nM
9 | CN1CCN(CC(=O)N2CCC[C@@H](n3nc(-c4ccc(Oc5ccccc5)cc4)c4c(N)ncnc43)C2)CC1 [Compound 39] |  | 0.093 µM | 0.23 µM | 5870 nM | IC50 [4]: 4910 nM
10 | CN1CCN(CCC(=O)N2CCC[C@@H](n3nc(-c4ccc(Oc5ccccc5)cc4)c4c(N)ncnc43)C2)CC1 [Compound 58] | 3720 nM | 0.094 µM | 0.058 µM |  | IC50 [7]: 7400 nM; IC50 [6]: 190 nM; IC50 [8]: 150 nM; IC50 [9]: 270 nM
11 | CC(C)(C)OC(=O)NCC(=O)N1CCC[C@@H](n2nc(-c3ccc(Oc4ccccc4)cc3)c3c(N)ncnc32)C1 [Compound 59, (R)-tert-butyl 2-(3-(4-amino-3-(4-phenoxyphenyl)-1H-pyrazolo[3,4-d]pyrimidin-1-yl)piperidin-1-yl)-2-oxoethylcarbamate] | 9290 nM | 0.18 µM | 0.429 µM |  | IC50 [6]: 775 nM
12 | CC(C)(C)OC(=O)NCC(=O)N1CC[C@@H](n2nc(-c3ccc(Oc4ccccc4)cc3)c3c(N)ncnc32)C1 [Compound 66, (R)-tert-butyl 2-(3-(4-amino-(4-phenoxyphenyl)-1H-pyrazolo[3,4-d]pyrimidin-1-yl)pyrrolidin-1-yl)-2-oxoethylcarbamate] | 6340 nM | 0.16 µM | 0.73 µM |  | IC50 [6]: 1600 nM
13 | CN(C)CC(=O)N1CCC(n2nc(-c3ccc(Oc4ccccc4)cc3)c3c(N)ncnc32)CC1 [Compound 72, 1-(4-(4-amino-(4-phenoxyphenyl)-1H-pyrazolo[3,4-d]pyrimidin-1-yl)piperidin-1-yl)-2-(dimethylamino)ethanone] | 3650 nM | 0.075 µM |  |  | 
14 | CS(=O)(=O)N1CCC(n2nc(-c3ccc(Oc4ccccc4)cc3)c3c(N)ncnc32)CC1 [Compound 73, 1-(1-(methylsulfonyl)piperidin-4-yl)-3-(4-phenoxyphenyl)-1H-pyrazolo[3,4-d]pyrimidin-4-amine] | > 10000 nM | 0.19 µM |  |  | 
15 | CC(C)C[C@@H](N)C(=O)N1CCC(n2nc(-c3ccc(Oc4ccccc4)cc3)c3c(N)ncnc32)CC1 [Compound 74, (R)-2-amino-1-(4-(4-amino-(4-phenoxyphenyl)-1H-pyrazolo[3,4-d]pyrimidin-1-yl)piperidin-1-yl)-4-methylpentan-1-one] | 590 nM | 0.075 µM |  |  | 

Now from value to molecule, other results behind:

Row | IC50 [3] | IC50 [1, 10] | IC50 [2, 11] | IC50 [5] | Compound | other results
16 |  | 1.4 µM | 6.5 µM | > 10000 nM | Nc1ncnc2c1c(-c1ccc(Oc3ccccc3)cc1)nn2[C@@H]1CCCN(C(=O)C2CC2)C1 [Compound 1, (R)-(3-(4-amino-(4-phenoxyphenyl)-1H-pyrazolo[3,4-d]pyrimidin-1-yl)piperidin-1-yl)(cyclopropyl)methanone] | IC50 [4]: > 10000 nM
17 |  | 0.45 µM |  | > 10000 nM | Nc1ncnc2c1c(-c1ccc(Oc3ccccc3)cc1)nn2[C@@H]1CCCN(C(=O)c2cccnc2)C1 [Compound 13, (R)-(3-(4-amino-(4-phenoxyphenyl)-1H-pyrazolo[3,4-d]pyrimidin-1-yl)piperidin-1-yl)(pyridin-3-yl)methanone] | 
18 |  | 0.2 µM |  | > 10000 nM | Nc1ncnc2c1c(-c1ccc(Oc3ccccc3)cc1)nn2[C@@H]1CCCN(C(=O)c2cncnc2)C1 [Compound 15, (R)-(3-(4-amino-(4-phenoxyphenyl)-1H-pyrazolo[3,4-d]pyrimidin-1-yl)piperidin-1-yl)(pyrimidin-5-yl)methanone] | 
19 |  | 0.79 µM |  | > 10000 nM | Nc1ncnc2c1c(-c1ccc(Oc3ccccc3)cc1)nn2[C@@H]1CCCN(C(=O)C2CCNCC2)C1 [Compound 19, (R)-(3-(4-amino-(4-phenoxyphenyl)-1H-pyrazolo[3,4-d]pyrimidin-1-yl)piperidin-1-yl)-4-piperidinmethanone] | 
20 |  | 0.07 µM | 0.35 µM | > 10000 nM | CC(=O)N1CCC[C@@H](n2nc(-c3ccc(Oc4ccccc4)cc3)c3c(N)ncnc32)C1 [Compound 34] | IC50 [4]: 3560 nM
21 |  | 0.15 µM | 0.67 µM | 8960 nM | Nc1ncnc2c1c(-c1ccc(Oc3ccccc3)cc1)nn2[C@@H]1CCCN(C(=O)CCCl)C1 [Compound 36] | IC50 [4]: > 10000 nM
22 |  | 0.15 µM | 0.23 µM | > 10000 nM | CC(Br)C(=O)N1CCC[C@@H](n2nc(-c3ccc(Oc4ccccc4)cc3)c3c(N)ncnc32)C1 (stereo partly drawn) [Compound 37] | IC50 [4]: 1090 nM
23 |  | 0.12 µM | 0.97 µM | 7930 nM | CC(Cl)C(=O)N1CCC[C@@H](n2nc(-c3ccc(Oc4ccccc4)cc3)c3c(N)ncnc32)C1 (stereo partly drawn) [Compound 38] | IC50 [4]: 6510 nM
24 | > 10000 nM | 0.49 µM | 0.24 µM |  | NC(=O)CC[C@H](N)C(=O)N1CCC[C@@H](n2nc(-c3ccc(Oc4ccccc4)cc3)c3c(N)ncnc32)C1 [Compound 56] | IC50 [6]: 710 nM
25 | 7210 nM | 0.48 µM | 0.948 µM |  | CC(C)C[C@@H](O)C(=O)N1CCC[C@@H](n2nc(-c3ccc(Oc4ccccc4)cc3)c3c(N)ncnc32)C1 [Compound 61, (R)-1-((R)-3-(4-amino-(4-phenoxyphenyl)-1H-pyrazolo[3,4-d]pyrimidin-1-yl)piperidin-1-yl)-2-hydroxyl-4-methylpentan-1-one] | IC50 [6]: 2120 nM
26 | 8460 nM | 0.41 µM | 0.38 µM |  | NCCCCC(=O)N1CCC[C@@H](n2nc(-c3ccc(Oc4ccccc4)cc3)c3c(N)ncnc32)C1 [Compound 62] | IC50 [6]: 1200 nM
27 | 4690 nM | 0.15 µM | 0.35 µM |  | CCCCC(O)C(=O)N1CCC[C@@H](n2nc(-c3ccc(Oc4ccccc4)cc3)c3c(N)ncnc32)C1 (stereo partly drawn) [Compound 63] | IC50 [6]: 720 nM
28 | > 10000 nM | 0.13 µM | 0.42 µM |  | CS(=O)(=O)N1CC[C@@H](n2nc(-c3ccc(Oc4ccccc4)cc3)c3c(N)ncnc32)C1 [Compound 67, (R)-1-(1-(methylsulfonyl)pyrrolidin-3-yl)-3-(4-phenoxyphenyl)-1H-pyrazolo[3,4-d]pyrimidin-4-amine] | IC50 [6]: 1460 nM
